According to publication PMC10167036, “The discovery and characterization of AeHGO in the branching route from shikonin biosynthesis to shikonofuran in Arnebia euchroma” (Frontiers in Plant Science, 2023):

Tested on: T1, AeHGO
T1 construct: full-length, N-terminal His-tag (pCold II), E. coli Transetta, IMAC purified, tag cut not mentioned; cloning primers encode N-terminus MGNSAE and C-terminus NTLKTA
Experiment: UPLC product assay, Michaelis-Menten fit
Type: biochemical, Arnebia euchroma
Settings: basic assay 50 mM MES-Tris pH 7.5, 37°C
Excerpt: UPLC product assay, Michaelis-Menten fit on AeHGO

[1] = oxidation, 500 µM NADP+, apparent

Km [1] [µM] | SMILES | other results
24.7 ± 5.18 | CC(C)=CCC/C(=C/Cc1cc(O)ccc1O)CO [compound 1, (Z)-3’’-OH-GHQ] | 
 | NC(=O)c1ccc[n+]([C@@H]2O[C@H](COP(=O)(O)OP(=O)(O)OC[C@H]3O[C@@H](n4cnc5c(N)ncnc54)[C@H](OP(=O)(O)O)[C@@H]3O)[C@@H](O)[C@H]2O)c1 [NADP^+] | Km (oxidation, 500 µM (Z)-3''-OH-GHQ): 17.8 ± 5.62 µM
18.7 ± 5.39 | CC(C)=CCC/C(=C\Cc1cc(O)ccc1O)CO [compound 2, (E)-3’’-OH-GHQ] | 
 | CC(C)=CCC/C(C=O)=C\Cc1cc(O)ccc1O [compound 3, (E)-3’’-oxo-GHQ] | Km (reduction, 500 µM NADPH, apparent, fit at low substrate concentrations because of substrate inhibition): 9.96 ± 2.87 µM
